Assay results as given in patent publication US9492437B2, “Otamixaban for treatment of elderly and renal impaired non-ST elevation myocardial infarction patients” (SANOFI, priority 2009, dated 2016).

Tests used:
[1] = tested on: patients with Unstable angina/Non ST segment Elevation Myocardial infarction; assay: randomized, double-blind triple-dummy trial, efficacy (endpoint of the study: all-cause death and new myocardial infarction); assay type: in vivo, human
Excerpt: (§1) The following results are based on a randomized, double-blind triple-dummy trial to compare otamixaban to Unfractionated Heparin+eptifibatide, in patients with Unstable angina/Non ST segment Elevation Myocardial infarction scheduled to undergo an early invasive strategy.
Patient with non STE-segment elevation Acute Coronary Syndrome with the following symptoms: […]
(§2) UFH: 60 IU/Kg as IV bolus ([…]) followed by an IV infusion of 12 U/Kg/h (max 1000 IU/h) to maintain a PTT at 1.5 to 2.0 times control and at the time of the PCI additional boluses needed if the ACT is not in the range of 200-250 seconds. NB: In order for the study to be blinded, all aPTTs and ACTs performed in order to adjust Drug B (UFH/placebo) dosing will be performed using an encrypted Hemochron Signature Elite machine (or as a back-up, a local device with a third-party unblinded healthcare professional).
(§3) Eptifibatide: a single bolus of 180 mcg/kg followed by an infusion of 2 mcg/kg/min. In patients with CrCl<50 mL/min the infusion rate will be decreased to 1 mcg/kg/min.
Primary endpoint: Adjudicated composite of all-cause death and new myocardial infarction (MI) within 7 days following randomization
The events will be adjudicated by a blinded independent adjudication committee. Since the goal of treating acute ACS without persistent ST segment elevation is to prevent associated morbidity and mortality, death and myocardial infarction are considered to be the clinically most meaningful endpoints in therapeutic studies, whereas recurrent ischemia or refractory angina is of more uncertain clinical relevance (EMEA/CPCP/EWP/570/98; February 2008).
The primary endpoint has been defined as the double clinical efficacy endpoint (all cause death and Myocardial Infarction based on centrally adjudicated data) that will be assessed at Day 7. Further estimation of this endpoint will be done at Day 30, Day 90 and Day 180 (end of the follow up) to check persistence of effect as recommended by the EMEA guideline (EMEA/CPCP/EWP/570/98; February 2008).
Myocardial Infarction is considered to be a hard component of a combined efficacy endpoint for confirmatory clinical trials. The definition of Myocardial Infarction will be based on ACC/AHA, ESC and WHF consensus (J Am Coll Cardiol, 2007; 50:2173-2195; Eur Heart J, 2007, 28: 2525-2538): […]

thrombosis = settings: porcine; cited from earlier work
[2] = tested on: prothrombin fragments 1+2; settings: highest dose regimen; cited from earlier work
[3] = tested on: patients with Unstable angina/Non ST segment Elevation Myocardial infarction; settings: in vivo
Method: as §1
Otamixaban arm: (Bol) 0.080 mg/Kg (I) 0.035 mg/Kg/h or 0.070 mg/Kg/h or 0.105 mg/Kg/h or 0.175 mg/Kg/h
as §2, §3
Safety: • Non-CABG TIMI significant (Major+Minor) bleeding adjudicated by a blinded Clinical Events Adjudication Committee (CEAC) at Day 7. • Non-CABG TIMI Major bleeding adjudicated by a blinded Clinical Events Adjudication Committee (CEAC) at Day 7. • CABG-related bleeding adjudicated by a blinded Clinical Events Adjudication Committee (CEAC) at Day 7. • TIMI Major Bleeding (Non CABG+CABG) adjudicated by a blinded Clinical Events Adjudication Committee (CEAC) at Day 7. • Adjudicated TIMI Minor bleedings at Day 7 • Adjudicated Thrombotic and non-thrombotic procedural complications during the index PCI (including abrupt or threatened closure, new intracoronary thrombus, side branch closure, distal embolization, noreflow, thrombus in catheter or adherent to guidewire, coronary dissection with decreased flow, difficulty in reaching or crossing lesion, unplanned stent use, suboptimal results, coronary perforation, tamponade). All the above events will be adjudicated by a blinded Independent Adjudication Committee.

factor Xa = molecular target: T1, factor Xa (Homo sapiens, UniProt P00742); settings: patients with stable coronary artery disease taking usual comedication, some with mild renal impairment; cited from earlier work
T1 construct: host or cells: patients (endogenous enzyme)
T1 sequence (P00742 235-488 limits assumed): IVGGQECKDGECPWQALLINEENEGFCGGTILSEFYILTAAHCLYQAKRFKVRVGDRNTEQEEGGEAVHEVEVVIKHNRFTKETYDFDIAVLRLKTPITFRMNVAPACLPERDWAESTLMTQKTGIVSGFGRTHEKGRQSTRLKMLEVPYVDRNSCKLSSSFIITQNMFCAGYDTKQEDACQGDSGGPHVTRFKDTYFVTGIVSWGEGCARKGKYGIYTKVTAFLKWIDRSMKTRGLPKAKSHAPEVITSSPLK
T1 sequence (P00742 41-179 partner limits assumed): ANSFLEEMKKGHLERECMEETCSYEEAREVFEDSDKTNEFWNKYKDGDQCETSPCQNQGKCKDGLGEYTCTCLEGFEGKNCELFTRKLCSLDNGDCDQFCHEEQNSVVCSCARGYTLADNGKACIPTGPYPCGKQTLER

acute coronary syndrome = settings: cited from earlier work
[4] = age 65 to 75 years, Ota. infusion 0.035 mg/Kg/h
[5] = age 65 to 75 years, Ota. infusion 0.070 mg/Kg/h
[6] = age 65 to 75 years, Ota. infusion 0.105 mg/Kg/h
[7] = age 65 to 75 years, Ota. infusion 0.140 mg/Kg/h
[8] = age 65 to 75 years, Ota. infusion 0.175 mg/Kg/h
[9] = age <65 years, Ota. infusion 0.035 mg/Kg/h
[10] = age <65 years, Ota. infusion 0.070 mg/Kg/h
[11] = age <65 years, Ota. infusion 0.105 mg/Kg/h
[12] = age <65 years, Ota. infusion 0.140 mg/Kg/h
[13] = age <65 years, Ota. infusion 0.175 mg/Kg/h
[14] = age older than 75 years, Ota. infusion 0.035 mg/Kg/h
[15] = age older than 75 years, Ota. infusion 0.070 mg/Kg/h
[16] = age older than 75 years, Ota. infusion 0.105 mg/Kg/h
[17] = age older than 75 years, Ota. infusion 0.140 mg/Kg/h
[18] = age older than 75 years, Ota. infusion 0.175 mg/Kg/h
[19] = creatinine clearance 30 to 50 ml/min, Ota. infusion 0.070 mg/Kg/h
[20] = creatinine clearance 30 to 50 ml/min, Ota. infusion 0.105 mg/Kg/h
[21] = creatinine clearance 30 to 50 ml/min, Ota. infusion 0.140 mg/Kg/h
[22] = creatinine clearance 30 to 50 ml/min, Ota. infusion 0.175 mg/Kg/h
[23] = creatinine clearance 50 to 80 ml/min, Ota. infusion 0.035 mg/Kg/h
[24] = creatinine clearance 50 to 80 ml/min, Ota. infusion 0.070 mg/Kg/h
[25] = creatinine clearance 50 to 80 ml/min, Ota. infusion 0.105 mg/Kg/h
[26] = creatinine clearance 50 to 80 ml/min, Ota. infusion 0.140 mg/Kg/h
[27] = creatinine clearance 50 to 80 ml/min, Ota. infusion 0.175 mg/Kg/h
[28] = creatinine clearance <30 ml/min, Ota. infusion 0.140 mg/Kg/h
[29] = creatinine clearance more than 80 ml/min, Ota. infusion 0.035 mg/Kg/h
[30] = creatinine clearance more than 80 ml/min, Ota. infusion 0.070 mg/Kg/h
[31] = creatinine clearance more than 80 ml/min, Ota. infusion 0.105 mg/Kg/h
[32] = creatinine clearance more than 80 ml/min, Ota. infusion 0.140 mg/Kg/h
[33] = creatinine clearance more than 80 ml/min, Ota. infusion 0.175 mg/Kg/h
[34] = dose arms from 0.105 to 0.175 mg/Kg/h (dose arm 3 to 5)

## COC(=O)C(Cc1cccc(C(=N)N)c1)[C@@H](C)NC(=O)c1ccc(-c2cc[n+]([O-])cc2)cc1 (mixture of isomers) [Otamixaban, (2R,3R)-2-(3-Carbamimidoyl-benzyl)-3-[4-(1-oxy-pyridin-4-yl)benzoylamino]-butyric acid methyl ester]
[1]; [4]
  patients who showed the endpoint of the study / patients in the group: 2/33
  patients with endpoint in comparison with the whole number of patients in the group: (6.1%)
[1]; [5]
  patients who showed the endpoint of the study / patients in the group: 11/186
  patients with endpoint in comparison with the whole number of patients in the group: (5.9%)
[1]; [6]
  patients who showed the endpoint of the study / patients in the group: 11/170
  patients with endpoint in comparison with the whole number of patients in the group: (6.5%)
[1]; [7]
  patients who showed the endpoint of the study / patients in the group: 9/182
  patients with endpoint in comparison with the whole number of patients in the group: (4.9%)
[1]; [8]
  patients who showed the endpoint of the study / patients in the group: 7/164
  patients with endpoint in comparison with the whole number of patients in the group: (4.3%)
[1]; [9]
  patients who showed the endpoint of the study / patients in the group: 5/74
  patients with endpoint in comparison with the whole number of patients in the group: (6.8%)
[1]; [10]
  patients who showed the endpoint of the study / patients in the group: 16/394
  patients with endpoint in comparison with the whole number of patients in the group: (4.1%)
[1]; [11]
  patients who showed the endpoint of the study / patients in the group: 8/394
  patients with endpoint in comparison with the whole number of patients in the group: (2.0%)
[1]; [12]
  patients who showed the endpoint of the study / patients in the group: 9/383
  patients with endpoint in comparison with the whole number of patients in the group: (2.3%)
[1]; [13]
  patients who showed the endpoint of the study / patients in the group: 16/401
  patients with endpoint in comparison with the whole number of patients in the group: (4.0%)
[1]; [14]
  patients who showed the endpoint of the study / patients in the group: 2/18
  patients with endpoint in comparison with the whole number of patients in the group: (11.1%)
[1]; [15]
  patients who showed the endpoint of the study / patients in the group: 4/96
  patients with endpoint in comparison with the whole number of patients in the group: (4.2%)
[1]; [16]
  patients who showed the endpoint of the study / patients in the group: 6/98
  patients with endpoint in comparison with the whole number of patients in the group: (6.1%)
[1]; [17]
  patients who showed the endpoint of the study / patients in the group: 6/93
  patients with endpoint in comparison with the whole number of patients in the group: (6.5%)
[1]; [18]
  patients who showed the endpoint of the study / patients in the group: 6/106
  patients with endpoint in comparison with the whole number of patients in the group: (5.7%)
[1]; creatinine clearance 30 to 50 ml/min, Ota. infusion 0.035 mg/Kg/h
  patients who showed the endpoint of the study / patients in the group: 0/7
[1]; [19]
  patients who showed the endpoint of the study / patients in the group: 5/54
  patients with endpoint in comparison with the whole number of patients in the group: (9.3%)
[1]; [20]
  patients who showed the endpoint of the study / patients in the group: 8/46
  patients with endpoint in comparison with the whole number of patients in the group: (17.4%)
[1]; [21]
  patients who showed the endpoint of the study / patients in the group: 4/46
  patients with endpoint in comparison with the whole number of patients in the group: (8.7%)
[1]; [22]
  patients who showed the endpoint of the study / patients in the group: 3/48
  patients with endpoint in comparison with the whole number of patients in the group: (6.3%)
[1]; [23]
  patients who showed the endpoint of the study / patients in the group: 5/29
  patients with endpoint in comparison with the whole number of patients in the group: (17.2%)
[1]; [24]
  patients who showed the endpoint of the study / patients in the group: 9/188
  patients with endpoint in comparison with the whole number of patients in the group: (4.8%)
[1]; [25]
  patients who showed the endpoint of the study / patients in the group: 5/189
  patients with endpoint in comparison with the whole number of patients in the group: (2.6%)
[1]; [26]
  patients who showed the endpoint of the study / patients in the group: 6/192
  patients with endpoint in comparison with the whole number of patients in the group: (3.1%)
[1]; [27]
  patients who showed the endpoint of the study / patients in the group: 8/178
  patients with endpoint in comparison with the whole number of patients in the group: (4.5%)
[1]; creatinine clearance <30 ml/min, Ota. infusion 0.035 mg/Kg/h
  patients who showed the endpoint of the study / patients in the group: 0/2
[1]; creatinine clearance <30 ml/min, Ota. infusion 0.070 mg/Kg/h
  patients who showed the endpoint of the study / patients in the group: 0/2
[1]; creatinine clearance <30 ml/min, Ota. infusion 0.105 mg/Kg/h
  patients who showed the endpoint of the study / patients in the group: 0/0
[1]; [28]
  patients who showed the endpoint of the study / patients in the group: 3/4
  patients with endpoint in comparison with the whole number of patients in the group: 75.0%
[1]; creatinine clearance <30 ml/min, Ota. infusion 0.175 mg/Kg/h
  patients who showed the endpoint of the study / patients in the group: 0/3
[1]; [29]
  patients who showed the endpoint of the study / patients in the group: 3/79
  patients with endpoint in comparison with the whole number of patients in the group: (3.8%)
[1]; [30]
  patients who showed the endpoint of the study / patients in the group: 14/382
  patients with endpoint in comparison with the whole number of patients in the group: (3.7%)
[1]; [31]
  patients who showed the endpoint of the study / patients in the group: 10/378
  patients with endpoint in comparison with the whole number of patients in the group: (2.6%)
[1]; [32]
  patients who showed the endpoint of the study / patients in the group: 9/372
  patients with endpoint in comparison with the whole number of patients in the group: (2.4%)
[1]; [33]
  patients who showed the endpoint of the study / patients in the group: 14/392
  patients with endpoint in comparison with the whole number of patients in the group: (3.6%)
[1]; demographic subgroups, baseline characteristics, invasive or medical management
  subgroup analysis of clinical results (age, gender, creatinine clearance, body weight, management of the acute coronary syndrome): consistency of the clinical results
[1]; dose arms 0.035 mg/Kg/h and 0.070 mg/Kg/h (dose arms 1 and 2)
  anticoagulation based on rates of bailout and thrombotic complications: inadequate anticoagulation
[1]; [34]
  effect on urgent revascularization or need for bailout: no demonstrable effect
  rates of primary endpoint lower than UFH+Eptifibatide: 31-41%
thrombosis
  efficacy in models of thrombosis: highly efficacious
[2]
  reduction of prothrombin fragments 1+2 versus unfractionated heparin: reduced prothrombin fragments 1+2 significantly more than unfractionated heparin
[3]; human
  bleeding rate among subgroups (age, baseline creatinine clearance, body weight): did not show any increase of the bleeding rate
[3]; 0.105 mg/kg
  rates of TIMI major as compared to UFH+eptifibatide: numerically higher
  rates of TIMI minimal as compared to UFH+eptifibatide: numerically higher
  rates of TIMI minor (for patients without TIMI major) as compared to UFH+eptifibatide: lower
[3]; 0.175 mg/kg
  TIMI significant bleeding: excessive
Factor Xa
  factor Xa inhibition in patients: dose-dependent, rapid direct factor Xa inhibition
Acute coronary syndrome
  efficacy, safety and tolerability in humans: efficacious, safe and well tolerated
